Where “and” joins values, the source holds several entries; their conditions need not be identical. Equal entries are not always repeated.
Each molecule was assayed on P. falciparum 3D7 growth, pLDH absorbance (assay: blood-stage malaria parasite growth potency – strain 3D7, dose response (AID 2305)).
`Cc1noc(C)c1-c1cccc(CNCc2cccc(-c3ccc(-c4nc5c(C)cccc5[nH]4)cc3)c2)c1` gave an IC50 of 190 nM.
With `O=C(NC1CCN(Cc2ccccc2O)C1)c1cccc(C(F)(F)F)c1` (stereo not given) the IC50 was 730 nM.
Work on `COc1cc(F)c2ncc(Cl)c(C(O)CN3CCC(NC(=O)c4ccc5c(c4)NC(=O)CS5)CC3)c2c1` (stereo not given) yielded an IC50 of 680 nM.
With `CN(C)c1ccc(CN2CCCC(CNC(=O)c3ccc(-c4cccc(C(F)(F)F)c4)s3)C2)cc1` (stereo not given) the IC50 was 1200 nM.
`Cn1cccc1CCNCc1ccc(-c2cccc(-c3nc4ccc(F)cc4[nH]3)c2)cc1` was tested, and the IC50 was 1220 nM.
`CNC(=O)c1ccccc1Nc1nc(Nc2ccc(N3CCOCC3)cc2)ncc1Cl` showed an IC50 of 730 nM.
In the case of `CCCCCCCN1CC[C@@H](CCCc2ccnc3ccc(OCCCCNC(N)=O)cc23)[C@@H](CC)C1`, the IC50 is reported as 840 nM.
Molecule `CS(=O)(=O)Nc1cccc(-c2cnc3[nH]cc(-c4cccc(CN)c4)c3c2)c1` has an IC50 of 1660 nM.
`Cc1nnc2sc(-c3cccc(NC(=O)c4ccc(N5CCCCC5)c([N+](=O)[O-])c4)c3)nn12` was tested, and the IC50 was 1300 nM.
With `COc1ccc2nccc([C@@H](O)CN3CCC(NC(=O)COc4nc(SCc5ccc(F)cc5)nc5c4CCC5)CC3)c2c1` the IC50 was 590 nM.
For `CCN(CC)CCN(Cc1ccc(-c2ccc(C(F)(F)F)cc2)cc1)C(=O)Cn1c(CCc2cccc(F)c2F)nc(=O)c2ccc(F)cc21`, the IC50 was 360 nM.
`Cc1cc(OCCCn2ccnc2)ccc1-c1csc(NC(N)=NCc2ccccc2)n1` showed an IC50 of 880 nM.
In the case of `CC(C)(CC1CCCCC1)NC(=O)[C@H](CC1CCCCC1)Nc1ccc(C#N)c2ccccc12`, the IC50 is reported as 590 nM.
Molecule `Cc1cccc(Cl)c1S(=O)(=O)N1CCCCC(c2ccc(C(F)(F)F)cc2)=N1` has an IC50 of 220 nM.
`Cc1ccc(Cl)cc1NC(=O)c1c(-c2ccccc2Cl)noc1C` gave an IC50 of 190 nM.
`Oc1ccc(Cl)cc1-c1cc(C(F)(F)F)nc(-c2ccccc2)n1` gave an IC50 of 750 nM.
Molecule `COc1ccc(NC(=O)c2ccc(-c3nc(-c4ccccc4)cs3)cc2)cc1N1CCN(C)CC1` has an IC50 of 990 nM.
For `O=C(c1ccc(Br)o1)N1N=C(c2cccs2)CC1c1ccc(Br)cc1` (stereo not given), the IC50 was 510 nM.
In the case of `COc1ccc2nccc([C@@H](O)CN3CCC(NCCNc4ccccn4)CC3)c2c1`, the IC50 is reported as 740 nM.
For `CCCC1N=C(N)N=C(N)N1c1ccccc1` (stereo not given), the IC50 was 820 nM.
Molecule `COCCNCc1ncsc1-c1ccc2c(Nc3cc(O)ccc3C)ccnc2c1` has an IC50 of 700 nM.
`c1ccc(-n2ncc(CNCc3ccc(-c4cccc(-c5nc6ccccc6[nH]5)c4)cc3)n2)cc1` gave an IC50 of 1230 nM.
For `CC(=O)C1=NN(c2ccc(C)cc2)C(c2cccs2)N1c1ccccc1` (stereo not given), the IC50 was 340 nM.
For `CCCCCc1cnc2nc(N)nc(N)c2c1`, the IC50 was 1230 nM.
Work on `Cc1cccc2[nH]c(-c3ccc(-c4cccc(NC(=O)Nc5ccccc5)c4)cc3)nc12` yielded an IC50 of 720 nM.
With `O=C(NCc1ccccn1)C(c1cc2ccccc2o1)N1CCN(C(c2ccccc2)c2ccccc2)CC1` (stereo not given) the IC50 was 860 nM.
For `COc1ccccc1CCNc1nc(C)cc(N[C@@H](Cc2ccccc2)C(=O)NCCOc2ccccc2)n1`, the IC50 was 1210 nM.
In the case of `CCNc1cc(C(=O)N[C@@H](Cc2ccccc2)[C@H](O)CN[C@@H](C)c2ccccc2)cc(N2CCCC2=O)c1`, the IC50 is reported as 670 nM.
Work on `COc1cccc2c(NN=Cc3ccccc3Cl)cc(C)nc12` yielded an IC50 of 210 nM.
Work on `CCCNC(=O)c1cncc(-c2cccc(CNC3Cc4ccccc4C3)c2)c1` yielded an IC50 of 800 nM.
`Cc1cccc2[nH]c(-c3ccc(-c4ccc(NC(=O)Nc5ccc(Cl)cc5)cc4)cc3)nc12` showed an IC50 of 100 nM.
Work on `OCC1CCN(Cc2ccc(-c3ccc(-c4nc5ccccc5[nH]4)cc3)cc2)CC1` yielded an IC50 of 900 nM.
For `CC(=O)c1nccc(C)c1N`, the IC50 was 930 nM.
In the case of `NC(N)=NN=Cc1cc2ccccc2c2ccccc12`, the IC50 is reported as 180 nM.
In the case of `COC(=O)c1cc2cccc(NC[C@@H](C)NC[C@H](O)c3cccc(Cl)c3)c2[nH]1`, the IC50 is reported as 630 nM.
Molecule `CCC[C@@H]([C@@H](CC(C)C)C(=O)N[C@H](C(=O)Nc1nccs1)C(C)(C)SCCNC(=O)OCC)N(O)C=O` has an IC50 of 170 nM.
Molecule `CC1CCCC(NCc2c(O)ccc3ccccc23)C1` (stereo not given) has an IC50 of 930 nM.
With `Fc1cccc(C=NNc2ccnc3ccc(C(F)(F)F)cc23)c1` the IC50 was 730 nM.
For `O=C(/C=C/c1ccc(C(F)(F)F)cc1)NCCCCCN1CCN(C(=O)Nc2ccc(Cl)cc2)CC1`, the IC50 was 1010 nM.
`O=C(C=Cc1ccccc1C(F)(F)F)NC1CCC(CN2CCC(c3c[nH]c4ccccc34)CC2)CC1` (stereo not given) was tested, and the IC50 was 900 nM and 680 nM.
With `O=C(NC1CCC(CN2CCC(c3c[nH]c4ccccc34)CC2)CC1)NC12CC3CC(CC(C3)C1)C2` (stereo not given) the IC50 was 1060 nM.
`COc1cc(NC(=O)N2CCc3ccc(OCCN4CCCCC4)cc32)cc(C(F)(F)F)c1` gave an IC50 of 270 nM.
Molecule `NC1CCCN(Cc2cccc(-c3ccc(-c4nc5ccccc5[nH]4)cc3)c2)C1` (stereo not given) has an IC50 of 720 nM.
Work on `O=C(Nc1ccc(OC2CCN(Cc3ccsc3)C2)c(Cl)c1)c1ccc(F)cc1` (stereo not given) yielded an IC50 of 940 nM.
With `CCN(CC)CCOC(=O)C(OC)(c1ccccc1)c1ccccc1` the IC50 was 1020 nM.
Work on `CC(=O)N(C)c1cccc(C(=O)Nc2cccc(-c3cccc(-c4nc5ccc(C(F)(F)F)cc5[nH]4)c3)c2)c1` yielded an IC50 of 240 nM.
Work on `COc1ccc(C2CCN(C#N)C2)cc1OC1CCCC1` (stereo not given) yielded an IC50 of 230 nM.
`COc1cccc(OC)c1OCCCON1C(N)=NC(N)=NC1(C)C` was tested, and the IC50 was 10 nM.
In the case of `Cc1c(C)c2c(c(C)c1O)CC[C@](C)(C(=O)N1CCC(CN3CCC(c4c[nH]c5ccccc45)CC3)CC1)O2`, the IC50 is reported as 720 nM.
For `O=C(/C=C/c1ccc(Cl)c(Cl)c1)NCCCCCN1CCCC(c2c[nH]c3ccccc23)C1` (stereo not given), the IC50 was 810 nM.
